Data taken from the NIST ThermoML archive (doi:10.1021/je700645p).
± gives the expanded uncertainty stated by the source.

What was measured:
[1] = xn = mol fraction of the nth substance listed; settings: 81.5 kPa, Liquid
[2] = 81.5 kPa, Liquid
[3] = refractive index (Na D-line) (dimensionless); settings: 298.15 K; 81.5 kPa; Liquid; Standard Abbe refractometry

C[S+](C)[O-] [dimethyl sulfoxide] + CC#N
mass density [kg/m3], [1]
Settings	293.15 K	303.15 K	313.15 K	323.15 K	333.15 K
x2 = 0	1100.41 ± 0.34	1090.37 ± 0.32	1080.34 ± 0.31	1070.3 ± 0.29	1060.27 ± 0.27
x2 = 0.0563	1087.32 ± 0.32	1077.27 ± 0.3	1067.22 ± 0.28	1057.17 ± 0.27	1047.11 ± 0.25
x2 = 0.1195	1072.32 ± 0.29	1062.27 ± 0.27	1052.21 ± 0.25	1042.11 ± 0.24	1032.03 ± 0.22
x2 = 0.1751	1058.54 ± 0.26	1048.48 ± 0.24	1038.38 ± 0.23	1028.38 ± 0.21	1018.15 ± 0.19
x2 = 0.2996	1025.83 ± 0.2	1015.69 ± 0.18	1005.54 ± 0.17	995.35 ± 0.17	985.14 ± 0.18
x2 = 0.3723	1005.56 ± 0.16	995.38 ± 0.16	985.18 ± 0.18	974.94 ± 0.19	964.64 ± 0.21
x2 = 0.4529	981.91 ± 0.18	971.68 ± 0.19	961.4 ± 0.21	951.09 ± 0.22	940.71 ± 0.24
x2 = 0.5273	959 ± 0.21	948.69 ± 0.23	938.36 ± 0.24	927.96 ± 0.26	917.5 ± 0.27
x2 = 0.579	942.39 ± 0.23	932.08 ± 0.25	921.68 ± 0.26	911.22 ± 0.28	900.68 ± 0.3
x2 = 0.6896	904.94 ± 0.29	894.48 ± 0.3	883.96 ± 0.32	873.36 ± 0.34	862.66 ± 0.35
x2 = 0.7579	880.41 ± 0.32	869.88 ± 0.34	859.27 ± 0.36	848.57 ± 0.37	837.77 ± 0.39
x2 = 0.8337	851.62 ± 0.37	841 ± 0.38	830.29 ± 0.4	819.48 ± 0.41	808.55 ± 0.43
x2 = 0.933	811.3 ± 0.43	800.6 ± 0.44	789.76 ± 0.46	778.79 ± 0.48	767.68 ± 0.49

CC#N [acetonitrile] + C[S+](C)[O-]
[1], x1 = 1
Settings	mass density [kg/m3]
293.15 K	781.97 ± 0.47
303.15 K	771.15 ± 0.49
313.15 K	760.2 ± 0.5
323.15 K	749.12 ± 0.52
333.15 K	737.87 ± 0.54

C[S+](C)[O-] [dimethyl sulfoxide] + O
mass density [kg/m3], [1]
Settings	293.15 K	303.15 K	313.15 K	323.15 K	333.15 K
x2 = 0	1100.41 ± 0.34	1090.37 ± 0.32	1080.34 ± 0.31	1070.3 ± 0.29	1060.27 ± 0.27
x2 = 0.0568	1100.94 ± 0.34	1090.97 ± 0.32	1081.01 ± 0.3	1071.03 ± 0.29	1061.04 ± 0.27
x2 = 0.1605	1101.91 ± 0.33	1092.1 ± 0.31	1082.26 ± 0.3	1072.41 ± 0.28	1062.5 ± 0.3
x2 = 0.2252	1102.54 ± 0.32	1092.83 ± 0.31	1083.1 ± 0.3	1073.32 ± 0.28	1063.49 ± 0.26
x2 = 0.3187	1103.26 ± 0.32	1093.73 ± 0.3	1084.18 ± 0.29	1074.52 ± 0.27	1064.79 ± 0.26
x2 = 0.3953	1103.54 ± 0.31	1094.31 ± 0.3	1084.89 ± 0.28	1075.37 ± 0.27	1065.74 ± 0.25
x2 = 0.4582	1103.48 ± 0.31	1094.25 ± 0.3	1084.95 ± 0.28	1075.54 ± 0.27	1066 ± 0.25
x2 = 0.5473	1102.05 ± 0.3	1093.11 ± 0.29	1084.03 ± 0.27	1074.8 ± 0.26	1065.41 ± 0.24
x2 = 0.6473	1097.2 ± 0.29	1088.67 ± 0.28	1079.97 ± 0.26	1071.08 ± 0.25	1062 ± 0.23
x2 = 0.7213	1089.55 ± 0.27	1081.52 ± 0.26	1073.28 ± 0.25	1064.82 ± 0.24	1056.12 ± 0.22
x2 = 0.7997	1075.48 ± 0.25	1068.31 ± 0.24	1060.87 ± 0.23	1053.13 ± 0.21	1045.11 ± 0.2
x2 = 0.8828	1051.12 ± 0.21	1045.47 ± 0.2	1039.4 ± 0.19	1032.81 ± 0.18	1024.92 ± 0.17
x2 = 0.9632	1016.98 ± 0.15	1013.46 ± 0.15	1009.19 ± 0.14	1003.92 ± 0.13	998.73 ± 0.13

O [water] + CC#N
[1], x1 = 1
Settings	mass density [kg/m3]
323.15 K	988.03 ± 0.07
333.15 K	983.19 ± 0.08

CC#N [acetonitrile] + O
mass density [kg/m3], [1]
Settings	293.15 K	303.15 K	313.15 K	323.15 K	333.15 K
x2 = 0	781.97 ± 0.24	771.15 ± 0.25	760.2 ± 0.3	749.12 ± 0.26	737.87 ± 0.27
x2 = 0.0417	785.6 ± 0.2	774.79 ± 0.24	763.85 ± 0.25	752.77 ± 0.26	741.52 ± 0.27
x2 = 0.0833	789.62 ± 0.23	778.83 ± 0.24	767.91 ± 0.25	756.84 ± 0.26	745.6 ± 0.3
x2 = 0.1568	797.67 ± 0.23	786.95 ± 0.23	776.09 ± 0.24	765.06 ± 0.25	753.85 ± 0.26
x2 = 0.2095	804.01 ± 0.22	793.33 ± 0.23	782.6 ± 0.2	771.62 ± 0.25	760.47 ± 0.25
x2 = 0.3247	819.96 ± 0.21	809.63 ± 0.22	799.11 ± 0.22	788.38 ± 0.23	777.43 ± 0.24
x2 = 0.4127	834.27 ± 0.2	824.27 ± 0.2	814.05 ± 0.21	803.6 ± 0.2	792.91 ± 0.23
x2 = 0.496	849.71 ± 0.18	840.11 ± 0.19	830.25 ± 0.2	820.14 ± 0.21	809.77 ± 0.21
x2 = 0.5704	864.78 ± 0.17	855.57 ± 0.18	846.08 ± 0.19	836.32 ± 0.19	826.29 ± 0.2
x2 = 0.6361	880.12 ± 0.16	871.32 ± 0.17	862.22 ± 0.17	852.82 ± 0.18	843.13 ± 0.19
x2 = 0.7201	902.94 ± 0.14	894.74 ± 0.15	886.22 ± 0.15	877.38 ± 0.16	868.22 ± 0.17
x2 = 0.7961	926.99 ± 0.12	919.47 ± 0.13	911.61 ± 0.13	903.39 ± 0.14	894.84 ± 0.15
x2 = 0.8788	956.73 ± 0.1	950.35 ± 0.1	943.52 ± 0.11	936.28 ± 0.12	928.67 ± 0.12
x2 = 0.9573	984.72 ± 0.08	980.43 ± 0.08	975.45 ± 0.08	969.87 ± 0.09	963.64 ± 0.09

O [water] + C[S+](C)[O-]
[1], x1 = 1
Settings	mass density [kg/m3]
323.15 K	988.03 ± 0.14
333.15 K	983.19 ± 0.15

C[S+](C)[O-] [dimethyl sulfoxide]
[2]
Settings	mass density [kg/m3]
293.15 K	1100.41 ± 0.34
303.15 K	1090.37 ± 0.32
313.15 K	1080.34 ± 0.31
323.15 K	1070.3 ± 0.29
333.15 K	1060.27 ± 0.27

Settings	refractive index
[3]	1.4767 ± 0.0008

CC#N [acetonitrile]
[2]
Settings	mass density [kg/m3]
293.15 K	781.97 ± 0.24
303.15 K	771.15 ± 0.25
313.15 K	760.2 ± 0.3
323.15 K	749.12 ± 0.26
333.15 K	737.87 ± 0.27

Settings	refractive index
[3]	1.3417 ± 0.0008
